From publication PMC11836371, “Virtual fragment screening for DNA repair inhibitors in vast chemical space” (Nature Communications, 2025)

Biological target: T1, OGG1 in HL60 cells (Homo sapiens, UniProt O15527)
T1 construct: endogenous in cells; host or cells: HL60
Assay: Cellular thermal shift assay (CETSA)
Assay type: cell-based
Protocol: CETSA experiments were carried out with intact HL60 cells treated in culture. Cells were seeded at a density of 350 000 cells/mL and treated with DMSO (0.01%, v/v) or 20 µM test compound for 2 h at 37 °C and 5% CO2 in a humidified incubator. Cells were washed once in 1x TBS (50 mM Tris-HCl, pH 7.6, 150 mM NaCl), resuspended in 1x TBS supplemented with protease inhibitors (Roche), and then divided into 30-µL aliquots corresponding to approximately 600,000 cells per sample in PCR strip tubes. Cells were heated in a Veriti Thermal Cycler (Applied Biosystems) for 3 min at indicated temperatures (temperature interval consisting of 2 °C increases, starting from 40 °C up to 62 °C) and cooled for 5 min at room temperature to allow precipitation of denatured proteins. 5x NP-40 buffer was added to the samples and cells were lysed by performing three freeze–thaw cycles at −80 °C for 3 min and at 37 °C for 3 min with gentle vortexing between the cycles. Cell lysates were then centrifuged at 17,000 g and 4 °C for 30 min to remove cellular debris and insoluble proteins. Supernatant was prepared for western blot analysis according to standard procedures. […]

T1 sequence (O15527 whole entry): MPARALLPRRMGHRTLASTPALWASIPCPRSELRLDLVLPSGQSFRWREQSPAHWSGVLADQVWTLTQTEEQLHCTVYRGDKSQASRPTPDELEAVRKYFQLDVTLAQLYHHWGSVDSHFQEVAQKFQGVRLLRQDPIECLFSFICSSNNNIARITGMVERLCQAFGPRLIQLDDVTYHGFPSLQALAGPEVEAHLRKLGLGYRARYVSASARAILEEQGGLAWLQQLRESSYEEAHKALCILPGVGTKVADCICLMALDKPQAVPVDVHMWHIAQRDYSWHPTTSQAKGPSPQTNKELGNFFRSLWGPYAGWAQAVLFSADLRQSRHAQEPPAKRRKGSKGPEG

Cc1nc(-c2cc(F)c(CC(=O)Nc3noc4c3CCCC4)c(F)c2)c(C)[nH]1 [compound 23]
thermal stabilization of OGG1 in cells (CETSA): strong thermal stabilization
